{"source": "patent US8481456B2", "about": "(priority 2009, dated 2013)", "key": {"Fusarium graminearum": {"tested_on": "Fusarium graminearum", "assay_type": "in vivo", "details": "1000 ppm a.i.; 5 days after the inoculation"}, "Septoria tritici": {"tested_on": "Septoria tritici", "assay": "Septoria tritici test (wheat)/preventive", "assay_type": "in vivo", "details": "500 ppm a.i.; 21 days after the inoculation"}, "[1]": {"tested_on": "larvae of the fall army worm (Spodoptera frugiperda)", "assay": "Spodoptera frugiperda test/seed application", "assay_type": "in vivo", "details": "1 mg a.i./seed, corn seed treatment"}, "[2]": {"tested_on": "Green peach aphid (Myzus persicae)", "assay": "Myzus persicae test", "assay_type": "in vivo", "details": "200 ppm a.i.", "procedure": "Cabbage leaves (Brassica oleracea) which are heavily infested by the Green peach aphid (Myzus persicae) are treated by being sprayed into the preparation of the active compound of the desired concentration. After the specified period of time, the mortality in % is determined. 100% means that all the aphids have been killed; 0% means that none of the aphids have been killed."}, "[3]": {"tested_on": "larvae of the mustard beetle (Phaedon cochleariae)", "assay": "Phaedon cochleariae larvae test", "assay_type": "in vivo", "details": "200 ppm a.i.", "procedure": "Cabbage leaves (Brassica oleracea) are treated by being sprayed into the preparation of the active compound of the desired concentration and are infested with larvae of the mustard beetle (Phaedon cochleariae) as long as the leaves are still moist. After the specified period of time, the mortality in % is determined. 100% means that all the beetle larvae have been killed; 0% means that none of the beetle larvae have been killed."}, "Alternaria solani": {"tested_on": "Alternaria solani", "assay": "Alternaria test (tomatoes)/preventive", "assay_type": "in vivo", "details": "Alternaria solani, 72 h, 3 days after the inoculation; for pest or weed control at 12.5 ppm: 12.5 ppm a.i.; for pest or weed control at 25 ppm: 25 ppm a.i."}, "Pyrenophora teres": {"tested_on": "Pyrenophora teres", "assay": "Pyrenophora teres test (barley)/preventive", "assay_type": "in vivo", "details": "8 days after the inoculation"}, "Phytophthora infestans": {"tested_on": "Phytophthora infestans", "assay": "whole plant or invertebrate", "assay_type": "in vivo", "details": "Phytophthora infestans, 72 h, 3 days after the inoculation; for pest or weed control at 50 ppm: 50 ppm a.i."}, "[4]": {"tested_on": "larvae of the diamondback moth (Plutella xylostella)", "assay": "Plutella xylostella test", "assay_type": "in vivo", "details": "Plutella xylostella, 200 ppm a.i.", "procedure": "Cabbage leaves (Brassica oleracea) are treated by being sprayed into the preparation of the active compound of the desired concentration and are infested with larvae of the diamondback moth (Plutella xylostella) as long as the leaves are still moist. After the specified period of time, the mortality in % is determined. 100% means that all the caterpillars have been killed; 0% means that none of the caterpillars have been killed."}, "[5]": {"tested_on": "Fusarium nivale (var. majus)", "assay": "Fusarium nivale (var. majus)-test (wheat)/preventive", "details": "500 ppm a.i.; 5 days after the inoculation"}, "Botrytis cinerea": {"tested_on": "Botrytis cinerea", "assay": "Botrytis test (beans)/preventive", "details": "2 days after the inoculation"}, "[6]": {"tested_on": "apple scab (Venturia inaequalis)", "assay": "Venturia test (apples)/preventive", "details": "Venturia inaequalis, 240 h, read-out: Efficacy in %, found"}, "[7]": {"details": "24 h, after 1 d, read-out: Mortality in % after 1 d, found"}, "[8]": {"details": "48 h, after 2 d, read-out: Mortality in % after 2 d, found"}, "[9]": {"details": "72 h, after 3 d, read-out: Mortality in % after 3 d, found"}, "[10]": {"details": "read-out: Efficacy in %, found, Table E1"}, "[11]": {"details": "read-out: Efficacy in %, found, Table E2"}}, "note": "Read-outs that look alike come from different tables or passages of the source."}
{"smiles": "Cn1c(=O)c2sc3c(=O)n(C)c(=O)c3sc2c1=O", "note": "[(I-1), 2,6-dimethyl-1H,5H-[1,4]dithiino[2,3-c:5,6-c′]dipyrrole-1,3,5,7(2H,6H)-tetrone]", "values": [{"measurement": "Efficacy in %, found", "setting": "Fusarium graminearum", "value": 50, "unit": "%"}, {"measurement": "Efficacy in %, found", "setting": "Septoria tritici", "value": 0, "unit": "%"}, {"measurement": "Efficacy in % 1 d after infestation, found", "setting": "[1]; 1 d after infestation", "value": 0, "unit": "%"}, {"measurement": "Efficacy in % 3 d after infestation, found", "setting": "[1]; 3 d after infestation", "value": 23.8, "unit": "%"}, {"measurement": "mortality at 200 ppm", "setting": "[2]; after 4 h, read-out: Mortality in % after 4 h, found", "value": 0, "unit": "%"}, {"measurement": "mortality at 200 ppm", "setting": "[2]; [7]", "value": 0, "unit": "%"}, {"measurement": "mortality at 200 ppm", "setting": "[2]; [8]", "value": 0, "unit": "%"}, {"measurement": "mortality at 200 ppm", "setting": "[2]; [9]", "value": 0, "unit": "%"}, {"measurement": "mortality at 200 ppm", "setting": "[3]; [7]", "value": 0, "unit": "%"}, {"measurement": "mortality at 200 ppm", "setting": "[3]; [9]", "value": 0, "unit": "%"}, {"measurement": "pest or weed control at 12.5 ppm", "setting": "Alternaria solani; [10]", "value": 13, "unit": "%"}, {"measurement": "pest or weed control at 25 ppm", "setting": "Alternaria solani; [10]", "value": 54, "unit": "%"}, {"measurement": "pest or weed control at 12.5 ppm", "setting": "Alternaria solani; [11]", "value": 30, "unit": "%"}, {"measurement": "pest or weed control at 25 ppm", "setting": "Alternaria solani; [11]", "value": 50, "unit": "%"}, {"measurement": "pest or weed control at 50 ppm", "setting": "Alternaria solani; read-out: Efficacy in %, found, Table E2, 50 ppm a.i.", "value": 58, "unit": "%"}, {"measurement": "Efficacy in %, found", "setting": "Pyrenophora teres; Table J1, 1000 ppm a.i.", "value": 43, "unit": "%"}, {"measurement": "Efficacy in %, found", "setting": "Pyrenophora teres; Table J2, 500 ppm a.i.", "value": 43, "unit": "%"}, {"measurement": "pest or weed control at 12.5 ppm", "setting": "Phytophthora infestans; read-out: Efficacy in %, found, Table I1, 12.5 ppm a.i.", "value": 18, "unit": "%"}, {"measurement": "pest or weed control at 50 ppm", "setting": "Phytophthora infestans; read-out: Efficacy in %, found, Table I1", "value": 43, "unit": "%"}, {"measurement": "pest or weed control at 50 ppm", "setting": "Phytophthora infestans; read-out: Efficacy in %, found, Table I2", "value": 28, "unit": "%"}, {"measurement": "mortality at 200 ppm", "setting": "[4]; [7]", "value": 0, "unit": "%"}, {"measurement": "mortality at 200 ppm", "setting": "[4]; [8]", "value": 0, "unit": "%"}, {"measurement": "Efficacy in %, found", "setting": "[5]", "value": 29, "unit": "%"}, {"measurement": "Efficacy in %, found", "setting": "Botrytis cinerea; 25 ppm a.i.", "value": 13, "unit": "%"}, {"measurement": "Efficacy in %, found", "setting": "Botrytis cinerea; 50 ppm a.i.", "value": 48, "unit": "%"}, {"measurement": "pest or weed control at 12.5 ppm", "setting": "[6]", "value": 33, "unit": "%"}, {"measurement": "pest or weed control at 50 ppm", "setting": "[6]", "value": 29, "unit": "%"}]}
